Source: patent US7906655B2, “Hepatitis C virus inhibitors” (Bristol-Myers Squibb Company, priority 2008, dated 2011)
pEC50: −log10 of the molar value.

Tested on: HCV 1b genotype
Test: HCV Replicon assay (HCV-neo replicon cells, wild-type)
Format: cell-based
Details: HCV 1b genotype replicon
In short: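 Inhibition was measured in HCV-neo (genotype 1b) replicon cells. Some assay versions used luciferase reporters.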

[1] = Hepatitis C virus, class symbols
[2] = Hepatitis C virus, numeric values

Compound	pEC50 [1]	other results
CC(=O)N[C@@H](C(=O)N1CCC[C@H]1c1nc2cc(-c3cnc(-c4cccc5[nH]c([C@@H]6CCCN6C(=O)[C@@H](c6ccccc6)N(C)C)nc45)o3)ccc2[nH]1)c1ccccc1 [Example J11.1, N-((1R)-2-((2S)-2-(5-(2-(2-((2S)-1-((2R)-2-(dimethyl-amino)-2-phenylacetyl)-2-pyrrolidinyl)-1H-benzimidazol-4-yl)-1,3-oxazol-5-yl)-1H-benzimidazol-2-yl)-1-pyrrolidinyl)-2-oxo-1-phenylethyl) acetamide]	> 8.34	
CN(C)[C@@H](C(=O)N1CCC[C@H]1c1nc2cc(-c3ccc(-c4ccc5nc([C@@H]6CCCN6C(=O)[C@@H](c6ccccc6)N(C)C)[nH]c5c4)o3)ccc2[nH]1)c1ccccc1 [JG4, (1R)-2-((2S)-2-(5-(5-(2-((2S)-1-((2R)-2-(dimethylamino)-2-phenylacetyl)-2-pyrrolidinyl)-1H-benzimidazol-6-yl)-2-furyl)-1H-benzimidazol-2-yl)-1-pyrrolidinyl)-N,N-dimethyl-2-oxo-1-phenylethanamine]	> 8.34	
CC[C@H](NC(=O)OCc1ccccc1)c1nc2cc(CCc3ccc4nc([C@H](CC)NC(=O)OCc5ccccc5)[nH]c4c3)ccc2[nH]1 [OL7, benzyl ((1S)-1-(5-(2-(2-((1S)-1-(((benzyloxy)carbonyl)amino)propyl)-1H-benzimidazol-6-yl)ethyl)-1H-benzimidazol-2-yl)propyl)carbamate]	7.00 to 8.34	
CSCC[C@H](NC(=O)OCc1ccccc1)c1nc2cc(CCc3ccc4nc([C@H](CCSC)NC(=O)OCc5ccccc5)[nH]c4c3)ccc2[nH]1 [OL4, benzyl ((1S)-1-(5-(2-(2-((1S)-1-(((benzyloxy)carbonyl)amino)-3-(methylsulfanyl)propyl)-1H-benzimidazol-6-yl)ethyl)-1H-benzimidazol-2-yl)-3-(methylsulfanyl)propyl) carbamate]		pEC50 (class symbols): 7.00 to 8.34
COC(=O)N[C@@H](C(=O)N1CCC[C@H]1c1nc2cc(-c3cnc(-c4cccc5[nH]c([C@@H]6CCCN6C(=O)[C@@H](c6ccccc6)N6CCN(C)CC6)nc45)o3)ccc2[nH]1)c1ccccc1 [Example J29, methyl ((1R)-2-(((2S)-2-(5-(2-(2-((2S)-1-((2R)-2-(4-methyl-1-piperazinyl)-2-phenylacetyl)-2-pyrrolidinyl)-1H-benzimidazol-4-yl)-1,3-oxazol-5-yl)-1H-benzimidazol-2-yl)-1-pyrrolidinyl)-2-oxo-1-phenylethyl) carbamate]	> 8.34	
CC(=O)N[C@@H](C(=O)N[C@@H](C)c1nc2cc(C#Cc3ccc4nc([C@H](C)NC(=O)[C@H](NC(C)=O)c5ccccc5)[nH]c4c3)ccc2[nH]1)c1ccccc1 [Example M30, (2R)-2-acetamido-N-((1S)-1-(5-((2-((1S)-1-(((2R)-2-acetamido-2-phenylacetyl)amino)ethyl)-1H-benzimidazol-6-yl)ethynyl)-1H-benzimidazol-2-yl)ethyl)-2-phenylacetamide]	> 8.34	
O=C(C1CC1)N1CCN(C(=O)OCc2ccccc2)C(c2nc3cc(CCc4ccc5nc(C6CN(C(=O)C7CC7)CCN6C(=O)OCc6ccccc6)[nH]c5c4)ccc3[nH]2)C1 (centres unmarked) [OL12, benzyl 2-(5-(2-(2-(1-((benzyloxy)carbonyl)-4-(cyclopropylcarbonyl)-2-piperazinyl)-1H-benzimidazol-6-yl)ethyl)-1H-benzimidazol-2-yl)-4-(cyclopropylcarbonyl)-1-piperazinecarboxylate]	6.00 to 7.00	
O=C(c1cccs1)N1CCC[C@H]1c1nc2cc(C#Cc3ccc4[nH]c([C@@H]5CCCN5C(=O)c5cccs5)nc4c3)ccc2[nH]1 [Example M10, 5,5′-(1,2-ethynediyl)bis(2-((2S)-1-(2-thienylcarbonyl)-2-pyrrolidinyl)-1H-benzimidazole)]		pEC50 [2]: 8.00
COC(=O)N[C@@H](C(=O)N[C@@H](C)c1nc2cc(C#Cc3ccc4[nH]c([C@H](C)NC(=O)[C@H](NC(=O)OC)c5ccccc5)nc4c3)ccc2[nH]1)c1ccccc1 [Example M31, dimethyl (1,2-ethynediylbis(1H-benzimidazole-5,2-diyl(1S)-1,1-ethanediylimino((1R)-2-oxo-1-phenyl-2,1-ethanediyl)))biscarbamate]		pEC50 [2]: 10.48
COc1cccc(CC(=O)N2CCC[C@H]2c2nc3cc(C#Cc4ccc5nc([C@@H]6CCCN6C(C)=O)[nH]c5c4)ccc3[nH]2)c1 [Example M54.17, 5-((2-((2S)-1-acetyl-2-pyrrolidinyl)-1H-benzimidazol-6-yl)ethynyl)-2-((2S)-1-((3-methoxyphenyl)acetyl)-2-pyrrolidinyl)-1H-benzimidazole]	7.00 to 8.34	
O=C(C1CCC1)N1CCC[C@H]1c1nc2cc(C#Cc3ccc4nc([C@@H]5CCCN5C(=O)C5CCC5)[nH]c4c3)ccc2[nH]1 [Example M9, 2-((2S)-1-(cyclobutylcarbonyl)-2-pyrrolidinyl)-5-((2-((2S)-1-(cyclobutylcarbonyl)-2-pyrrolidinyl)-1H-benzimidazol-6-yl)ethynyl)-1H-benzimidazole]	7.00 to 8.34	
O=C(c1ccccc1)N1CCC[C@H]1c1nc2ccc(C#Cc3ccc4[nH]c([C@@H]5CCCN5C(=O)[C@H]5CCCO5)nc4c3)cc2[nH]1 [Example M54.1, 5-((2-((2S)-1-benzoyl-2-pyrrolidinyl)-1H-benzimidazol-6-yl)ethynyl)-2-((2S)-1-((2R)-tetrahydro-2-furanylcarbonyl)-2-pyrrolidinyl)-1H-benzimidazole]	7.00 to 8.34	
O=C(Cc1cccs1)N1CCC[C@H]1c1nc2cc(C#Cc3ccc4nc([C@@H]5CCCN5C(=O)[C@H]5CCCO5)[nH]c4c3)ccc2[nH]1 [Example M50, 5-((2-((2S)-1-((2R)-tetrahydro-2-furanylcarbonyl)-2-pyrrolidinyl)-1H-benzimidazol-6-yl)ethynyl)-2-((2S)-1-(2-thienylacetyl)-2-pyrrolidinyl)-1H-benzimidazole]	> 8.34	
CN(C)[C@@H](C(=O)N1CCC[C@H]1c1nc2ccc(C(=O)c3ccc4nc([C@@H]5CCCN5C(=O)[C@@H](c5ccccc5)N(C)C)[nH]c4c3)cc2[nH]1)c1ccccc1 [Example J32, bis(2-((2S)-1-((2R)-2-(dimethylamino)-2-phenylacetyl)-2-pyrrolidinyl)-1H-benzimidazol-5-yl)methanone]	7.00 to 8.34	
COc1cccc2c(C(=O)N3CCC[C@H]3c3nc4cc(C#Cc5ccc6nc([C@@H]7CCCN7C(=O)c7nc(Cl)cc8c(OC)cccc78)[nH]c6c5)ccc4[nH]3)nc(Cl)cc12 [Example M18, 3-chloro-1-(((2S)-2-(5-((2-((2S)-1-((3-chloro-5-methoxy-1-isoquinolinyl)carbonyl)-2-pyrrolidinyl)-1H-benzimidazol-6-yl)ethynyl)-1H-benzimidazol-2-yl)-1-pyrrolidinyl)carbonyl)-5-methoxyisoquinoline]	6.00 to 7.00	
COC(=O)N[C@@H](C(=O)N1CCC[C@H]1c1nc2ccc(C(=O)c3ccc4nc([C@@H]5CCCN5C(=O)[C@H](NC(=O)OC)c5ccccc5)[nH]c4c3)cc2[nH]1)c1ccccc1 [Example J33]	> 8.34	
O=C(c1nc(Cl)cc2ccccc12)N1CCC[C@H]1c1nc2cc(C#Cc3ccc4nc([C@@H]5CCCN5C(=O)c5nc(Cl)cc6ccccc56)[nH]c4c3)ccc2[nH]1 [Example M26.2, 3-chloro-1-(((2S)-2-(5-((2-((2S)-1-((3-chloro-1-isoquinolinyl)carbonyl)-2-pyrrolidinyl)-1H-benzimidazol-6-yl)ethynyl)-1H-benzimidazol-2-yl)-1-pyrrolidinyl)carbonyl)isoquinoline]	6.00 to 7.00	
O=C(c1ccoc1)N1CCC[C@H]1c1nc2ccc(C#Cc3ccc4[nH]c([C@@H]5CCCN5C(=O)[C@H]5CCCO5)nc4c3)cc2[nH]1 [Example M54.5, 5-((2-((2S)-1-(3-furoyl)-2-pyrrolidinyl)-1H-benzimidazol-6-yl)ethynyl)-2-((2S)-1-((2R)-tetrahydro-2-furanylcarbonyl)-2-pyrrolidinyl)-1H-benzimidazole]	7.00 to 8.34	
O=C(Cc1cccnc1)N1CCC[C@H]1c1nc2ccc(C#Cc3ccc4[nH]c([C@@H]5CCCN5C(=O)[C@H]5CCCO5)nc4c3)cc2[nH]1 [Example M49, 5-((2-((2S)-1-(3-pyridinylacetyl)-2-pyrrolidinyl)-1H-benzimidazol-6-yl)ethynyl)-2-((2S)-1-((2R)-tetrahydro-2-furanylcarbonyl)-2-pyrrolidinyl)-1H-benzimidazole]	> 8.34	
C[C@H](NC(=O)[C@@H](c1ccccc1)N(C)C)c1nc2cc(C#Cc3ccc4nc([C@H](C)NC(=O)[C@@H](c5ccccc5)N(C)C)[nH]c4c3)ccc2[nH]1 [Example M29, (2R)-2-(dimethylamino)-N-((1S)-1-(5-((2-((1S)-1-(((2R)-2-(dimethylamino)-2-phenylacetyl)amino)ethyl)-1H-benzimidazol-6-yl)ethynyl)-1H-benzimidazol-2-yl)ethyl)-2-phenylacetamide]	> 8.34	
O=C(OCc1ccccc1)N1CCC[C@H]1c1nc2cc(C#Cc3ccc4nc([C@@H]5CCCN5C(=O)OCc5ccccc5)[nH]c4c3)ccc2[nH]1 [Example M26.4, benzyl (2S)-2-(5-((2-((2S)-1-((benzyloxy)carbonyl)-2-pyrrolidinyl)-1H-benzimidazol-6-yl)ethynyl)-1H-benzimidazol-2-yl)-1-pyrrolidinecarboxylate]	7.00 to 8.34	
COC(=O)N[C@H](C(=O)N1[C@@H]2C[C@@H]2C[C@H]1c1nc2cc(Oc3cccc(-c4ccc5[nH]c([C@@H]6C[C@H]7C[C@H]7N6C(=O)[C@@H](NC(=O)OC)C(C)C)nc5c4)c3)ccc2[nH]1)C(C)C [Example V1, Methyl((1S)-1-(((1R,3S,5R)-3-(5-(3-(2-((1R,3S,5R)-2-((2S)-2-((methoxycarbonyl)amino)-3-methylbutanoyl)-2-azabicyclo[3.1.0]hex-3-yl)-1H-benzimidazol-5-yl)phenoxy)-1H-benzimidazol-2-yl)-2-azabicyclo[3.1.0]hex-2-yl)carbonyl)-2-methylpropyl)carbamate]	> 8.34	
CC(=O)N1CCC[C@H]1c1nc2c(-c3ncc(-c4ccc5[nH]c([C@@H]6CCCN6C(=O)[C@@H](c6ccccc6)N(C)C)nc5c4)o3)cccc2[nH]1 [Example J27, (1R)-2-((2S)-2-(5-(2-(2-((2S)-1-acetyl-2-pyrrolidinyl)-1H-benzimidazol-4-yl)-1,3-oxazol-5-yl)-1H-benzimidazol-2-yl)-1-pyrrolidinyl)-N,N-dimethyl-2-oxo-1-phenyl-ethanamine]	> 8.34	
